The structures appear in SMILES notation.

The text below walks through data of patent publication US20110118314A1, “PIPERIDINE ANALOGS AS GLYCOGEN SYNTHASE ACTIVATORS” (priority 2009, published 2011).

The experiment relates to glycogen synthase. Briefly: Glycogen Synthase (GS) Assay. The format is biochemical. Particulars: for EC50: compound concentration needed to give 50% maximum activation; for GS SC200: compound concentration needed to stimulate 200% of the enzyme activity. The method, then: The following tests were carried out in order to determine the activity of the compounds of formula (I).
Twelve μL per well of substrate solution containing glycogen (4.32 mg/mL), 2.67 mM UDP-glucose, 21.6 mM phospho(enol)pyruvate and 2.7 mM NADH in 30 mM glycylglycine, pH 7.3 buffer was added into a polystyrene 384-well assay plate (BD Biosciences).
Compound solutions (8 μL/well) at various concentrations (0-300 μM) were added to the assay plate (columns 5-24). Compound solution contains 30 mM glycylglycine, pH 7.3, 40 mM KCl, 20 mM MgC12, 9.2% DMSO, with (columns 15-24) or without (columns 5-14) 20 mM glucose 6-phosphate.
Enzyme solution (12 μL/well) containing glycogen synthase (16.88 μg/mL), pyruvate kinase (0.27 mg/mL), lactate dehydrogenase (0.27 mg/mL) in 50 mM Tris-HCl, pH 8.0, 27 mM DTT and bovine serum albumin (BSA, 0.2 mg/mL) was added to the assay plate (columns 3-24). As a blank control, enzyme solution without glycogen synthase was added into the top half wells of columns 1-2. To the bottom half wells of columns 1-2 were added a known activator, glucose 6-phosphate (at final concentration 5 mM) in addition to the enzyme solution. The reaction mixture was incubated at room temperature. The assay plate was then read for absorbance at 340 nm on an Envision reader every 3 minutes up to a total of 15 minutes.
The enzyme activity (with or without compound) was calculated by the reaction rate and represented by the optical density change (SOD) per minute. Percent stimulation of glycogen synthase activity by a compound at various concentrations was calculated by the following formula: […]
where Rs is the reaction rate of the enzyme in the presence of compound and Rt is the reaction rate of the enzyme in the absence of compound.
SC200 is defined as the compound concentration that is needed to stimulate 200% of the enzyme activity. EC50 is defined as the compound concentration that is needed to give 50% maximum activation.
Compounds from Example 1 through Example 36 were assayed according to assay procedures described above and the results are listed in Table 1 below: […]

Broadly, the EC50 is the concentration giving half of the maximal effect. A higher EC50 goes with a less potent agent. Turning to `COc1cc(F)c(F)cc1-c1ccc(OC[C@H]2CCCN(C(=O)N(CC(=O)O)Cc3ccccc3)C2)cc1` (single isomer, unassigned) [Example 24], it took 4.76 µM to reach a half-maximal effect (EC50) and the “GS SC200” value was 1.99 µM. On the same counts, the results for `COc1cc(F)c(F)cc1-c1ccc(OCC2CCCN(C(=O)CC(=O)O)C2)cc1` (stereo not drawn) [Example 2, 3-[3-(4′,5′-Difluoro-2′-methoxy-biphenyl-4-yloxymethyl)-piperidin-1-yl]-3-oxo-propionic acid] are 0.51 µM and 0.05 µM. On the same counts, the results for `COc1cc(F)c(F)cc1-c1ccc(OCC2CCCN(C(=O)C(C(=O)O)C(C)(C)C)C2)cc1` (stereo not drawn) [Example 19, 2-[3-(4′,5′-Difluoro-2′-methoxy-biphenyl-4-yloxymethyl)-piperidine-1-carbonyl]-3,3-dimethyl-butyric acid] are 5.35 µM and 2.21 µM. For the compound `COc1cc(F)c(F)cc1-c1ccc(OCC2CCCN(C(=O)N(CC(=O)NS(C)(=O)=O)Cc3ccccc3)C2)cc1` (stereo not drawn) [Example 34, 3-(4′,5′-Difluoro-2′-methoxy-biphenyl-4-yloxymethyl)-piperidine-1-carboxylic acid benzyl-(2-methanesulfonylamino-2-oxo-ethyl)-amide], the EC50 was determined as 0.52 µM and the “GS SC200” value was determined as 0.07 µM. As to `COc1cc(F)c(F)cc1-c1ccc(OCC2CCCN(C(=O)[C@H](CC(=O)O)NC(=O)OC(C)(C)C)C2)cc1` (stereo partly drawn) [Example 12, (S)-3-tert-Butoxycarbonylamino-4-[3-(4′,5′-difluoro-2′-methoxy-biphenyl-4-yloxymethyl)-piperidin-1-yl]-4-oxo-butyric acid], the EC50 is 11.1 µM and the “GS SC200” value turned out to be 3.74 µM. On the same counts, the results for `COc1cc(F)c(F)cc1-c1ccc(OCC2CCCN(C(=O)CC(=O)NO)C2)cc1` (stereo not drawn) [Example 6, 3-[3-(4′,5′-Difluoro-2′-methoxy-biphenyl-4-yloxymethyl)-piperidin-1-yl]-N-hydroxy-3-oxo-propionamide] are 5.54 µM and 2.37 µM. `COc1cc(F)c(F)cc1-c1ccc(OCC2CCCN(C(=O)[C@H](C)CC(=O)O)C2)cc1` (stereo partly drawn) [Example 8, (R)(+)-4-[3-(4′,5′-Difluoro-2′-methoxy-biphenyl-4-yloxymethyl)-piperidin-1-yl]-3-methyl-4-oxo-butyric acid]: the EC50 stood at 8.03 µM and the “GS SC200” value came out at 2.35 µM. On the same counts, the results for `COc1cc(F)c(F)cc1-c1ccc(OCC2CCCN(C(=O)[C@@H](CC(=O)O)NC(C)=O)C2)cc1` (stereo partly drawn) [Example 11, (R)-3-Acetylamino-4-[3-(4′,5′-difluoro-2′-methoxy-biphenyl-4-yloxymethyl)-piperidin-1-yl]-4-oxo-butyric acid] are 1.93 µM and 0.42 µM.

Take `COc1cc(F)c(F)cc1-c1ccc(OCC2CCCN(C(=O)C3CN(C(=O)OC(C)(C)C)CC3C(=O)O)C2)cc1` (stereo not drawn) [Example 14, 4-[3-(4′,5′-Difluoro-2′-methoxy-biphenyl-4-yloxymethyl)-piperidine-1-carbonyl]-pyrrolidine-1,3-dicarboxylic acid 1-tert-butyl ester]: the EC50 was 3.72 µM and the “GS SC200” value stood at 1.94 µM.

As to `COc1cc(F)c(F)cc1-c1ccc(OCC2CCCN(C(N)=O)C2)cc1` (stereo not drawn) [Example 9, 3-(4′,5′-Difluoro-2′-methoxy-biphenyl-4-yloxymethyl)-piperidine-1-carboxylic acid amide], the midpoint of the response, the EC50, lay at 6.26 µM and the “GS SC200” value was 2.22 µM.

Take `COc1cc(F)c(F)cc1-c1ccc(OC[C@H]2CCCN(C(=O)CC(=O)O)C2)cc1` (single isomer, unassigned) [Example 3]: the EC50 turned out to be 0.35 µM and the “GS SC200” value is 0.21 µM. On the same counts, the results for `COc1cc(F)c(F)cc1-c1ccc(OCC2CCCN(C(=O)C3CN(C(N)=O)CC3C(=O)O)C2)cc1` (stereo not drawn) [Example 16, 1-Carbamoyl-4-[3-(4′,5′-difluoro-2′-methoxy-biphenyl-4-yloxymethyl)-piperidine-1-carbonyl]-pyrrolidine-3-carboxylic acid] are 6.48 µM and 0.42 µM. As for `COc1cc(F)c(F)cc1-c1ccc(OCC2CCCN(C(=O)C3CCS(=O)(=O)N3)C2)cc1` (stereo not drawn) [Example 21, [3-(4′,5′-Difluoro-2′-methoxy-biphenyl-4-yloxymethyl)-piperidin-1-yl]-(1,1-dioxido-3-isothiazolidin-3-yl)-methanone], the EC50 came out at 7.3 µM. In the case of `COc1cc(F)c(F)cc1-c1ccc(OCC2CCCN(C(=O)C3(C(=O)O)CC3)C2)cc1` (stereo not drawn) [Example 1, 1-[3-(4′,5′-Difluoro-2′-methoxy-biphenyl-4-yloxymethyl)-piperidine-1-carbonyl]-cyclopropanecarboxylic acid], a half-maximal effect (EC50) was put at 3.4 µM and the “GS SC200” value was 1.1 µM. `COc1cc(F)c(F)cc1-c1ccc(OCC2CCN(C(=O)N(C)CC(=O)O)C2)cc1` (stereo not drawn) [Example 26, {[3-(4′,5′-Difluoro-2′-methoxy-biphenyl-4-yloxymethyl)-pyrrolidine-1-carbonyl]-methyl-amino}-acetic acid]: the midpoint of the response, the EC50, lay at 24.7 µM and the “GS SC200” value came out at 5.97 µM. On the same counts, the results for `COc1cc(F)c(F)cc1-c1ccc(OCC2CCCN(C(=O)N(C)Cc3nnn[nH]3)C2)cc1` (stereo not drawn) [Example 30, 3-(4′,5′-Difluoro-2′-methoxy-biphenyl-4-yloxymethyl)-piperidine-1-carboxylic acid methyl-(1H-tetrazol-5-ylmethyl)-amide] are 8.29 µM and 1.38 µM. On the same counts, the results for `COc1cc(F)c(F)cc1-c1ccc(OCC2CCN(C(=O)N(CC(=O)NS(C)(=O)=O)Cc3ccccc3)C2)cc1` (stereo not drawn) [Example 35, 3-(4′,5′-Difluoro-2′-methoxy-biphenyl-4-yloxymethyl)-pyrrolidine-1-carboxylic acid benzyl-(2-methanesulfonylamino-2-oxo-ethyl)-amide] are 0.82 µM and 0.28 µM.

On to `COc1cc(F)c(F)cc1-c1ccc(OC[C@@H]2CCCN(C(=O)CC(=O)O)C2)cc1` (single isomer, unassigned) [Example 4], for which the EC50 was 1.74 µM and the “GS SC200” value came out at 1.18 µM. With `COc1cc(F)c(F)cc1-c1ccc(OCC2CCCN(C(=O)[C@@H](CC(=O)O)NC(=O)OC(C)(C)C)C2)cc1` (stereo partly drawn) [Example 10, (R)-3-tert-Butoxycarbonylamino-4-[3-(4′,5′-difluoro-2′-methoxy-biphenyl-4-yloxymethyl)-piperidin-1-yl]-4-oxo-butyric acid], the half-maximal effective concentration (EC50) is 5.71 µM and the “GS SC200” value worked out at 1.51 µM. On the same counts, the results for `COc1cc(F)c(F)cc1-c1ccc(OC[C@@H]2CCCN(C(=O)N(C)CC(=O)NS(C)(=O)=O)C2)cc1` [Example 33, (R)-3-(4′,5′-Difluoro-2′-methoxy-biphenyl-4-yloxymethyl)-piperidine-1-carboxylic acid (2-methanesulfonylamino-2-oxo-ethyl)-methyl-amide] are 2.03 µM and 0.41 µM.

Take `COc1cc(F)c(F)cc1-c1ccc(OCC2CCCN(C(=O)N(CCC(=O)O)Cc3ccccc3)C2)cc1` (stereo not drawn) [Example 28, 3-{Benzyl-[3-(4′,5′-difluoro-2′-methoxy-biphenyl-4-yloxymethyl)-piperidine-1-carbonyl]-amino}-propionic acid]: the EC50 came out at 6.29 µM and the “GS SC200” value stood at 2.52 µM. On the same counts, the results for `COc1cc(F)c(F)cc1-c1ccc(OCC2CCCN(C(=O)N(C)CC(=O)NS(C)(=O)=O)C2)cc1` (stereo not drawn) [Example 31, 3-(4′,5′-Difluoro-2′-methoxy-biphenyl-4-yloxymethyl)-piperidine-1-carboxylic acid (2-methanesulfonylamino-2-oxo-ethyl)-methyl-amide] are 0.38 µM and 0.11 µM. On the same counts, the results for `COc1cc(F)c(F)cc1-c1ccc(OCC2CCCN(C(=O)N(C)CC(=O)O)C2)cc1` (stereo not drawn) [Example 25, {[3-(4′,5′-Difluoro-2′-methoxy-biphenyl-4-yloxymethyl)-piperidine-1-carbonyl]-methyl-amino}-acetic acid] are 0.29 µM and 0.02 µM. In the case of `COc1cc(F)c(F)cc1-c1ccc(OCC2CCCN(C(=O)[C@H]3CCC[C@@H]3C(=O)O)C2)cc1` (stereo in doubt) [Example 7, 2-[3-(4′,5′-Difluoro-2′-methoxy-biphenyl-4-yloxymethyl)-piperidine-1-carbonyl]-cyclopentanecarboxylic acid], the EC50 is 6.28 µM and the “GS SC200” value was determined as 1.55 µM. Compound `CCC(C(=O)O)C(=O)N1CCCC(COc2ccc(-c3cc(F)c(F)cc3OC)cc2)C1` (stereo not drawn) [Example 18, 2-[3-(4′,5′-Difluoro-2′-methoxy-biphenyl-4-yloxymethyl)-piperidine-1-carbonyl]-butyric acid] had an EC50 of 0.98 µM.
